Source: BindingDB's records for doi:10.1016/j.ejmech.2018.07.023 (University of Copenhagen, 2018)
*1 amine or outer side, *2 acyl side, *3 side chain or, on linkers, in order; H or OH if unused. Where a SMILES comes first, the peptide text is derived from it. Bridges are numbered along the chain shown (N, C = ends). [ ]: non-standard residue; d: D form. Leu(3R-O(AcLeu(3R-OH))) = CC(=O)N[C@H](C(=O)O[C@H](C(C)C)[C@H](N)C(=O)O)[C@H](O)C(C)C; X1 = CC(C)[C@@H](O[*:3])[C@H](N[*:1])C(=O)[*:2]; NMeT = CN[C@H](C(=O)O)[C@@H](C)O; dPhLac = O=C(O)[C@H](O)Cc1ccccc1; NMeA = CN[C@@H](C)C(=O)O; NMeDha = C=C(NC)C(=O)O

Experiment: Inhibition of recombinant rat Gi coupled mGlu2 receptor expressed in CHO cells assessed as suppression of L-glutamate-induced decrease in cAMP level pretreated for 1 hr followed by L-glutamate/forskolin addition and measured after 30 mins by FRET assay

SMILES: C=C1C(=O)N[C@@H](C)C(=O)N(C)[C@@H](C)C(=O)N[C@@H]([C@H](OC(=O)[C@@H](NC(C)=O)[C@H](O)C(C)C)C(C)C)C(=O)N(C)[C@@H]([C@@H](C)OC)C(=O)O[C@H](C)[C@H](NC(C)=O)C(=O)O[C@H](CC(C)C)C(=O)N1C
- IC50: > 100 µM

SMILES: C=C1C(=O)N[C@@H](C)C(=O)N(C)[C@@H](C)C(=O)N[C@@H]([C@H](OC(=O)[C@@H](NC(C)=O)[C@H](O)C(C)C)C(C)C)C(=O)N(C)[C@@H]([C@@H](C)OC)C(=O)OC[C@H](NC(C)=O)C(=O)O[C@H](Cc2ccccc2)C(=O)N1C
- IC50: > 50 µM

SMILES: C=C1C(=O)N[C@@H](C)C(=O)N(C)[C@@H](C)C(=O)N[C@@H]([C@H](OC(=O)[C@@H](NC(C)=O)[C@H](O)C(C)C)C(C)C)C(=O)N(C)[C@@H]([C@@H](C)OC)C(=O)O[C@H](C)[C@H](NC(C)=O)C(=O)O[C@H](Cc2ccccc2)C(=O)N1C
- IC50: > 100 µM

SMILES: C=C1C(=O)N[C@@H](C)C(=O)N(C)[C@@H](C)C(=O)N[C@@H]([C@H](OC(=O)[C@@H](NC(=O)c2ccccc2)[C@H](O)C(C)C)C(C)C)C(=O)N(C)[C@@H]([C@@H](C)OC)C(=O)O[C@H](C)[C@H](NC(C)=O)C(=O)O[C@H](Cc2ccccc2)C(=O)N1C
- IC50: > 100 µM

SMILES: C=C1C(=O)N[C@@H](C)C(=O)N(C)[C@@H](C)C(=O)N[C@@H]([C@H](OC(=O)[C@@H](NC(C)=O)[C@H](O)C(C)C)C(C)C)C(=O)N(C)[C@@H]([C@@H](C)OC)C(=O)O[C@H](C(C)C)[C@H](NC(C)=O)C(=O)O[C@H](Cc2ccccc2)C(=O)N1C (Ac-[X1][dPhLac][NMeDha]A[NMeA][Leu(3R-O(AcLeu(3R-OH)))][NMeT](Me); ester 1-C)
- IC50: > 50 µM

SMILES: CO[C@H](C)[C@H]1C(=O)O[C@H](C)[C@H](NC(C)=O)C(=O)O[C@H](CC(C)C)C(=O)N(C)[C@H](CO)C(=O)N[C@@H](C)C(=O)N(C)[C@@H](C)C(=O)N[C@@H]([C@H](OC(=O)[C@@H](NC(C)=O)[C@H](O)C(C)C)C(C)C)C(=O)N1C
- IC50: > 100 µM

SMILES: C=C1C(=O)N[C@@H](C)C(=O)N(C)[C@@H](C)C(=O)N[C@@H]([C@H](OC(=O)[C@@H](NC(C)=O)[C@H](O)C(C)C)C(C)C)C(=O)N(C)[C@@H]([C@@H](C)OC)C(=O)O[C@@H](C)[C@H](NC(C)=O)C(=O)O[C@H](Cc2ccccc2)C(=O)N1C
- IC50: > 50 µM

SMILES: C=C1C(=O)N[C@@H](C)C(=O)N(C)[C@@H](C)C(=O)N[C@@H]([C@H](OC(=O)[C@@H](NC(=O)CCCCC)[C@H](O)C(C)C)C(C)C)C(=O)N(C)[C@@H]([C@@H](C)OC)C(=O)O[C@H](C)[C@H](NC(C)=O)C(=O)O[C@H](Cc2ccccc2)C(=O)N1C
- IC50: > 50 µM
